Measurements from patent US8350048B2, “Amide compounds as boosters of antivirals” (Janssen R&D Ireland, priority 2007, dated 2013).
Where two headings read alike, the source gives them in different places.

Key:
[1] = test system: wild-type HIV-1IIIB strain; assay: Antiviral activity, MT4 LTR-EGFP cellular assay; assay type: cell-based; design: key to Antiviral activity IIIB (pEC50): pEC50 = -log10(EC50); settings: for EC50: read-out: Antiviral activity IIIB (pEC50) (converted)
Procedure: (§1) Assay 1 &2: Antiviral Activity/Toxicity
The compounds of the present invention were tested for antiviral activity in a cellular assay, which was performed according to the following procedure.
The human T-cell line MT4 is engineered with Green Fluorescent Protein (GFP) and an HIV-specific promoter, HIV-1 long terminal repeat (LTR). This cell line is designated MT4 LTR-EGFP, and can be used for the in vitro evaluation of anti-HIV activity of investigational compounds. In HIV-1 infected cells, the Tat protein is produced which upregulates the LTR promotor and finally leads to stimulation of the GFP reporter production, allowing measuring ongoing HIV-infection fluorometrically.
(§2) The ratio of CC50 to EC50 is defined as the selectivity index (SI) and is an indication of the selectivity of the anti-HIV activity of the inhibitor. The ultimate monitoring of HIV-1 infection and cytotoxicity is done using a scanning microscope. Image analysis allows very sensitive detection of viral infection. Measurements are done before cell necrosis, which usually takes place about five days after infection, in particular measurements are performed three days after infection.
(§3) A pEC50 value corresponds to −log10(EC50). A pCC50 value corresponds to −log10(CC50).

[2] = Toxicity, mock-infected MT4 CMV-EGFP cells; assay type: cell-based, human; settings: human, mock-infected MT4 CMV-EGFP cells; read-out: Toxicity MT4 (pCC50) (converted)
From the text: as §1
(§4) Analogously, MT4 cells are engineered with GFP and the constitutional cytomegalovirus (CMV) promotor. […] Cytotoxic investigational compounds reduce GFP levels of mock-infected MT4 CMV-EGFP cells.
as §2, §3

[3] = Metabolic stability of test compounds (HLM15'); assay type: in vitro ADME, human; settings: human liver microsomes 1 mg/ml, 5 μM test compound, 15 min
From the text: Human liver tissue is rinsed in ice-cold 0.1 M Tris-HCl (pH 7.4) buffer to wash excess blood. Tissue is then blotted dry, weighed and chopped coarsely using surgical scissors. The tissue pieces are homogenized in 3 volumes of ice-cold 0.1 M phosphate buffer (pH 7.4) using either a Potter-S (Braun, Italy) equipped with a Teflon pestle or a Sorvall Omni-Mix homogenizer, for 7×10 sec. In both cases, the vessel is kept in/on ice during the homogenization process. Tissue homogenates are centrifuged at 9000×g for 20 min at 4° C. using a Sorvall centrifuge or Beckman Ultracentrifuge. The resulting supernatant can be stored at −80° C. and is designated ‘S9’. The S9 fraction is centrifuged at 100,000×g for 60 min at 4° C. using a Beckman ultracentrifuge. The resulting supernatant is carefully aspirated, aliquoted and designated ‘cytosol’. The pellet is re-suspended in 0.1 M phosphate buffer (pH 7.4) in a final volume of 1 ml per 0.5 g original tissue weight and designated ‘microsomes’. All sub-cellular fractions are aliquoted, immediately frozen in liquid nitrogen and stored at −80° C. until use.
Heat-inactivated (10 min at 95° C.) ‘S9’ or microsomes were used for blank experiments. […] The reaction was incubated for 0 or 15 min. Next, the reaction was stopped by addition of 2 volumes of DMSO (or acetonitrile). Samples were centrifuged (10 min, 900×g) and analyzed by LC-MS.

CYP2C9 = CYP2C9 (Homo sapiens, UniProt P11712); assay: in vitro; settings: for inhibition at 30 min, 10 μM: human, pH 7.4
From the text: (§5) Assay 4: CYP450 Inhibition

CYP2D6 = CYP2D6 (Homo sapiens, UniProt P10635); assay: in vitro; settings: pH 7.4
Procedure: (§6) Inhibition of the metabolism of test compounds by different CYP P450 isoenzymes was determined using E. coli expressed proteins (3A4, 2C9, 2D6, 1A2, and 2C19) that convert their specific substrates into a fluorescent molecule (Table 6). This fluorescent molecule was measured using a fluorescent plate reader (Victor2 (Wallac) or Fluoroskan (Labsystems)). […] CYP P450 enzymes were prepared in house or commercially bought and stored at −80° C.
(§7) The assay was performed in black 96 well Costar plates. Test compounds were added to a CYP P450 enzyme solution in the presence of an NADPH generating system. After 5 min of preincubation at 37° C., the freshly prepared, phosphate buffered (pH 7.4) substrate solution was added. Known CYP P450 inhibitors were used as positive controls, negative controls were run without CYP P450 enzyme. […] Reaction mixtures were incubated at 37° C. for 30 min (CYP3A4-BFC), 30 min (CYP3A4-BQ), 10 min (CYP3A4-DBF), 15 min (CYP1A2-CEC), 30 min (CYP2C9-MFC, CYP2C19-CEC), or 45 min (CYP2D6-AMMC), respectively. Then, the reaction was stopped by the addition of 200 μl acetonitrile, and the fluorescent signal was detected.
(§8) Calculation of CYP P450 isoenzyme inhibition (% inh.):
(§9) % activity=(100/(average positive control−average negative control))×(average sample−average negative control)

CYP1A2 = biological target: T1, CYP1A2 (Homo sapiens, UniProt P05177); assay: in vitro; settings: E. coli expressed CYP1A2, pH 7.4, probe CEC 5 μM
T1 sequence (P05177 1-516): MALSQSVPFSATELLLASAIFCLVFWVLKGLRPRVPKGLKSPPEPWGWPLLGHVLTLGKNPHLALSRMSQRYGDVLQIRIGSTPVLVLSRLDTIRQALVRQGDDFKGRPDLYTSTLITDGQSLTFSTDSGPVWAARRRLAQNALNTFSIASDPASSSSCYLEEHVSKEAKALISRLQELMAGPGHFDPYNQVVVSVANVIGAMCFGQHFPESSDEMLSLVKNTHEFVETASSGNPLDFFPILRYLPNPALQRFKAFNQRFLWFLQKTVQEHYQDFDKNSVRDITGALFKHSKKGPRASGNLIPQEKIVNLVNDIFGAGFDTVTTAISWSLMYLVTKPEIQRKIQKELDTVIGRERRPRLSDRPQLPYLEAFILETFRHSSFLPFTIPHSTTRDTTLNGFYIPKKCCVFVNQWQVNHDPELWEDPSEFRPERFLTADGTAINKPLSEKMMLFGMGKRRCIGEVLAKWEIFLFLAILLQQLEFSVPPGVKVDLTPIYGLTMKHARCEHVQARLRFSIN
Procedure: as §6, §7, §8, §9

CYP2C19 [4] = biological target: T2, CYP2C19 (Homo sapiens, UniProt P33261); assay: in vitro; settings: E. coli expressed CYP2C19, pH 7.4, probe CEC 25 μM
Procedure: as §6, §7, §8, §9

MT4 CMV-EGFP cells = assay: Toxicity, mock-infected MT4 CMV-EGFP cells; assay type: cell-based, human
From the text: as §1, §4, §2, §3

CYP3A4 [5] = biological target: T3, CYP3A4 (Homo sapiens, UniProt P08684); assay: CYP450 inhibition CDNA-CYP3A4-BFC; settings: for Cyp450 inhibition: CDNA-CYP3A4-BFC (% inhibition): 10 μM test compound, substrate BFC 150 μM, 30 min
From the text: as §5

CYP3A4 [6] = biological target: T3, CYP3A4; assay: CYP450 inhibition CDNA-CYP3A4-BQ; settings: for Cyp450 inhibition: CDNA-CYP3A4-BQ (% inhibition): 10 μM test compound, substrate BQ 60 μM, 30 min
From the text: as §5

CYP2C19 [7] = biological target: T2, CYP2C19; assay: CYP450 inhibition CDNA-CYP2C19-CEC; settings: 10 μM test compound, substrate CEC 25 μM, 30 min
Procedure: as §6, §7, §8, §9

CYP3A4 [8] = biological target: T3, CYP3A4; assay: in vitro; settings: human, pH 7.4
From the text: as §5

[9] = wild-type HIV-1 IIIB, MT4 LTR-EGFP cells, three days after infection

T3 sequence (P08684 whole entry): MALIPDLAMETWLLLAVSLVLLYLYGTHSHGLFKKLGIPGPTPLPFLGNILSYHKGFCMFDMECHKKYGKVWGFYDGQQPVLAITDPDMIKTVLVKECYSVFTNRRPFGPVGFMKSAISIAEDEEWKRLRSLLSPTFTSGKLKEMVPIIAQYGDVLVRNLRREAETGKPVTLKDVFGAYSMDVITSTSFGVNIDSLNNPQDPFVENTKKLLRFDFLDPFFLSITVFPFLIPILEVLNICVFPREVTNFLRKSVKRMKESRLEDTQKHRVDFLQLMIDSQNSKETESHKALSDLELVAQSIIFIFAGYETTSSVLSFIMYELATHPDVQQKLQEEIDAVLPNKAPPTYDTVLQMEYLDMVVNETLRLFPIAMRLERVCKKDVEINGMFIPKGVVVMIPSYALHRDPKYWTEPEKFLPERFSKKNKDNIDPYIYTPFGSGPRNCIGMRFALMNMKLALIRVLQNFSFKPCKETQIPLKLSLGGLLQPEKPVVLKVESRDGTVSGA
T2 sequence (P33261 whole entry): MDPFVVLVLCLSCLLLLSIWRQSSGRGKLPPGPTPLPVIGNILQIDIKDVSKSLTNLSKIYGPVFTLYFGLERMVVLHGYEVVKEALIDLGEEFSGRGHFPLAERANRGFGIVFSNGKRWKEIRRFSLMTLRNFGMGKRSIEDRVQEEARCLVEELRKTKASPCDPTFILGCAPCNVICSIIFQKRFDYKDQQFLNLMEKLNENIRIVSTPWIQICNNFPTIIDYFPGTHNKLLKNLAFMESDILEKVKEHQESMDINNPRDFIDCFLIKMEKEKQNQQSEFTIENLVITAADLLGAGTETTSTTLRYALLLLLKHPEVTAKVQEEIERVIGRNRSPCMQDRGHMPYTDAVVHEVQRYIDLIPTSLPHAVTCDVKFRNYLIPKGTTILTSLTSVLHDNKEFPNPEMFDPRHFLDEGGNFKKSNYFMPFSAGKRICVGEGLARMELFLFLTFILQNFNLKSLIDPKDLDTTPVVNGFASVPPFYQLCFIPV
Chain of CYP2C9 (P11712 whole entry): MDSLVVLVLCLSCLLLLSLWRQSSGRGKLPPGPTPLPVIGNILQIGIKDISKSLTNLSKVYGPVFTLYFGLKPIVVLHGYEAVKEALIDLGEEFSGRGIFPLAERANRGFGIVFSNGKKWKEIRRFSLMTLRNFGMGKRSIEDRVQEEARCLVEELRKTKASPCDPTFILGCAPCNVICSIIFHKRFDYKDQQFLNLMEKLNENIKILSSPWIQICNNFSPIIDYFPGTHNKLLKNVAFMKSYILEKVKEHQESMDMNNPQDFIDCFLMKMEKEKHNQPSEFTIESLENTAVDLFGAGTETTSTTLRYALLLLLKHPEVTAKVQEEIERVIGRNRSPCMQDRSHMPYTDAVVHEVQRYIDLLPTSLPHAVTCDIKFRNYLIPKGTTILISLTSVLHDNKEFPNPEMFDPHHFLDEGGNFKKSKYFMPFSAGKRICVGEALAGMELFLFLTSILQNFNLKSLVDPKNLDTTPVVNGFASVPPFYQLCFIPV
Chain of CYP2D6 (P10635 whole entry): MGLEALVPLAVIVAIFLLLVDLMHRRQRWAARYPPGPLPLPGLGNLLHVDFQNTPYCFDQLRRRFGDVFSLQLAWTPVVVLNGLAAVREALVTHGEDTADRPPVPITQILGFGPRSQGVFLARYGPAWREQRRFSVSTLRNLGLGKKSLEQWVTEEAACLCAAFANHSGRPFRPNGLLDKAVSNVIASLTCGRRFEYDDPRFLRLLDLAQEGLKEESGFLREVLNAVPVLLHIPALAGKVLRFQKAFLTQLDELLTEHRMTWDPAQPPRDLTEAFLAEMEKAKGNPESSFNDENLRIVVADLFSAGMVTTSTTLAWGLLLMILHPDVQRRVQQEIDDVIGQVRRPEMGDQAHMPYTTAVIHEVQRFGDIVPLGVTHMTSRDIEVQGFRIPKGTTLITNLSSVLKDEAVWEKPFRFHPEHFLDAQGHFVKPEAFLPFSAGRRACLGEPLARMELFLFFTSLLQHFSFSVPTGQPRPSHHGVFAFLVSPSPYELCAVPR

SMILES | EC50 ([1]; Human immunodeficiency virus 1, 72 h, wild-type HIV-1 IIIB, MT4 LTR-EGFP cells, three days after infection) [µM] | CC50 at 3 days [2] [µM] | recovery at 15 min, 5 μM ([3]; pH 7.4, read-out: Metabolic stability (HLM, % recovery after 15')) [%] | inhibition at 30 min, 10 μM (CYP2C9) [%] | inhibition at 45 min, 10 μM (CYP2D6) [%] | inhibition at 15 min, 10 μM (CYP1A2) [%] | inhibition at 30 min, 10 μM (CYP2C19 [4]) [%] | Antiviral activity IIIB (pEC50) [1, 9] | Toxicity MT4 (pCC50) (MT4 CMV-EGFP cells) | Metabolic stability (HLM, % recovery after 15') [3] [%] | Cyp450 inhibition: CDNA-CYP3A4-BFC (% inhibition) (CYP3A4 [5]) [%] | Cyp450 inhibition: CDNA-CYP3A4-BQ (% inhibition) (CYP3A4 [6]) [%] | Cyp450 inhibition: CDNA-CYP2C9-MFC (% inhibition) (CYP2C9) [%] | Cyp450 inhibition: CDNA-CYP2C19-CEC (% inhibition) (CYP2C19 [7]) [%] | EC50 ([1]; Human immunodeficiency virus 1, IIIB, 72 h) [µM] | inhibition at 30 min, 10 μM (CYP3A4 [5]; human, E. coli expressed CYP3A4, pH 7.4, probe BFC 150 μM) [%] | inhibition at 30 min, 10 μM (CYP3A4 [6]; human, E. coli expressed CYP3A4, pH 7.4, probe BQ 60 μM) [%] | inhibition at 10 min, 10 μM (CYP3A4 [8]) [%]
CCN(C)c1nc2ccc(C(=O)N(CC3CCCCC3)C[C@@H](O)[C@H](Cc3ccccc3)NC(=O)OCc3cncs3)cc2o1 [Compound C32, Thiazol-5-ylmethyl (2S,3R)-4-(N-(cyclohexylmethyl)-2-(ethyl(methyl)-amino)benzo[d]oxazole-6-carboxamido)-3-hydroxy-1-phenylbutan-2-yl-carbamate] | 20.9 | 21.4 | 54 | 98 | 87 | 27 | 100 |  |  |  |  |  |  |  |  |  |  | 
O=C(N[C@@H](Cc1ccccc1)[C@H](O)CN(CCN1CCCC1)C(=O)c1ccc2nc(N3CCCC3)oc2c1)OCc1cncs1 [Compound C13] |  |  |  |  |  |  |  | =4.24 | <4.00 | 81 | 91 | 76 | 42 | 46 |  |  |  | 
CN(C[C@@H](O)[C@H](Cc1ccccc1)NC(=O)OCc1cncs1)C(=O)c1ccc2nc(N3CCCC3)oc2c1 [Compound C21] |  |  |  |  |  |  |  | <4.00 | <4.00 | 71 | 96 | 81 | 100 | 90 |  |  |  | 
CN(C)CCN(C[C@@H](O)[C@H](Cc1ccccc1)NC(=O)OCc1cncs1)C(=O)c1ccc2nc(N3CCCC3)oc2c1 [Compound C17] |  |  |  |  |  |  |  | <4.00 | <4.00 | 55 | 95 | 79 | 34 | 46 |  |  |  | 
CCc1nc2ccc(C(=O)N(CC(C)C)C[C@@H](O)[C@H](Cc3ccccc3)NC(=O)OCc3cncs3)cc2o1 [Compound C39, Thiazol-5-ylmethyl (2S,3R)-4-(2-ethyl-N-isobutylbenzo[d]oxazole-6-carboxamido)-3-hydroxy-1-phenylbutan-2-ylcarbamate] |  | > 100 |  | 95 | 51 | 2 | 87 |  |  |  |  |  |  |  | 87.1 | 95 | 77 | 92
CC(C)(C)CN(C[C@@H](O)[C@H](Cc1ccccc1)NC(=O)OCc1cncs1)C(=O)c1ccc2nc(N3CCCC3)oc2c1 [Compound C37] |  |  |  |  |  |  |  | =4.35 | =4.31 | 71 | 97 | 79 | 96 | 92 |  |  |  | 
